Test system: KRAS-mutant PDC multicell tumor spheroid viability
Assay: Anticancer human tumor 521955-158-R2-J5-PDC patient-derived pancreatic carcinoma cell line growth inhibition [KRAS2]
Settings: for IC50: curve of first compound; for viability, T/C: stronger effect = lower value
Text: Multicellular complex tumor spheroid response to RAS pathway inhibitors in combination with a targeted agents in patient-derived cell lines with oncogenic KRAS variants from multiple cancer types
A high-throughput screen of multi-cell type tumor spheroids was designed to identify active combinations of targeted small molecules and KRAS pathway inhibitors. Complex spheroids include a stromal component modeled by human endothelial cells (HUVEC) and fibroblasts modeled by human mesenchymal stem cells (MSCs). The concentration ranges selected for each drug and investigational agent were based upon clinically achievable concentrations if the clinical Cmax of the agent was known.
Compounds. The drugs and investigational agents: BI-3406 (NSC825286), BAY-293 (NSC824723), batoprotafib (TNO155; NSC825523), sotorasib (AMG 510; NSC818433), MRTX1257 (NSC819558), elimusertib (BAY 1895344; NSC800525), molibresib (GSK525762; NSC774829), temuterkib (LY3214996; NSC803410), venetoclax (NSC766270), alisertib (NSC759677), olaparib (NSC753686), talazoparib (NSC767125), erdafitinib (NSC781556), ipatasertib (NSC767898), cabozantinib (NSC761068), nintedanib (NSC756659), abemaciclib (NSC768073), docetaxel (NSC628503), trametinib (NSC758246), and sapanisertib (NSC764658) were obtained from the National Cancer Institute (NCI) Developmental Therapeutics Program Chemical Repository. The FDA-approved anticancer drug set is available from the Developmental Therapeutics Program. […] The stock solutions were prepared in dimethyl sulfoxide (DMSO, Sigma-Aldrich, St. Louis, MO, cat. D2650) at 800-fold the tested concentration and stored at -70 degrees C prior to their use. All drugs and investigational agents were tested over a range starting from a high concentration at or near the clinical Cmax and decreasing in half-log increments. If the clinical Cmax for an agent had not been determined, the highest concentration tested was 10 microM.
Cell Culture. All cells were maintained in an incubator at 37 degrees C and 5% CO2 with 95% humidity. The PDC lines were cultured according to standard operating procedures established by the NCI PDMR (https://pdmr.cancer.gov/sops/default.htm). Briefly, all PDCs were thawed and cultured in Matrigel-coated flasks prepared with a working solution of 1X Ham's F-12 nutrient mix, without supplementation (Invitrogen, Waltham, MA, cat. 11765054), 100 U/mL penicillin-streptomycin (Invitrogen, cat. 15140122), and 2.5% Matrigel (Corning Inc., Corning, NY, cat. 354248) for the first three passages. All PDCs were cultured in complete DMEM/F-12 media containing advanced DMEM/F-12 (Invitrogen, cat. 12634028), 4.9% defined fetal bovine serum, heat inactivated (HyClone Laboratories Inc., Logan, UT, cat. SH30070.03HI), 389 ng/mL hydrocortisone (Sigma-Aldrich, cat. H4001), 9.7 ng/mL human EGF recombinant protein (Invitrogen, cat. PHG0313), 23.4 microg/mL adenine (Sigma-Aldrich, cat. A2786), 97.3 U/mL penicillin-streptomycin (Invitrogen, cat. 15140122), 1.9 mM L-glutamine (Invitrogen, cat. 25030081), and 9.7 microM Y-27632 dihydrochloride (Tocris Bioscience, Bristol, United Kingdom, cat. 1254). The PDCs were cultured in complete DMEM/F12 media without 9.7 microM Y-27632 dihydrochloride for at least two passages prior to the screen. The established cell line HOP-62 was cultured in RPMI 1640 medium, HEPES (Invitrogen, cat. 22400105) with 10% defined fetal bovine serum (HyClone Laboratories Inc., cat. SH30070.03) and 2 mM L-glutamine (Invitrogen, cat. 25030081). The pooled donor HUVEC were cultured in endothelial cell growth medium 2 (PromoCell, Heidelberg, Germany, cat. C-22011) and the hMSC were cultured in mesenchymal stem cell growth medium 2 (PromoCell, cat. C-28009). For all experiments, HUVEC and hMSC were used at passages </=5, while the malignant cell lines were used at passages </=15. […]

[1] = second compound 0.1 µM, first compound 0.0316 µM
[2] = second compound 0.316 µM, first compound 0.0316 µM
[3] = second compound 1 µM, first compound 0.0316 µM
[4] = second compound 3.16 µM, first compound 0.0316 µM
[5] = second compound 10 µM, first compound 0.0316 µM
[6] = second compound 0.1 µM, first compound 0.1 µM
[7] = second compound 0.1 µM, first compound 0.316 µM
[8] = second compound 0.1 µM, first compound 1 µM
[9] = second compound 0.1 µM, first compound 3.16 µM
[10] = second compound 0.1 µM, first compound 10 µM
[11] = second compound 0.316 µM, first compound 0.1 µM
[12] = second compound 0.316 µM, first compound 0.316 µM
[13] = second compound 0.316 µM, first compound 1 µM
[14] = second compound 0.316 µM, first compound 3.16 µM
[15] = second compound 0.316 µM, first compound 10 µM
[16] = second compound 1 µM, first compound 0.1 µM
[17] = second compound 1 µM, first compound 0.316 µM
[18] = second compound 1 µM, first compound 1 µM
[19] = second compound 1 µM, first compound 3.16 µM
[20] = second compound 1 µM, first compound 10 µM
[21] = second compound 3.16 µM, first compound 0.1 µM
[22] = second compound 3.16 µM, first compound 0.316 µM
[23] = second compound 3.16 µM, first compound 1 µM
[24] = second compound 3.16 µM, first compound 3.16 µM
[25] = second compound 3.16 µM, first compound 10 µM
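Also: viability read after seven days of drug exposure.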

## CC(=O)Nc1cccc(-n2c(=O)n(C3CC3)c(=O)c3c(Nc4ccc(I)cc4F)n(C)c(=O)c(C)c32)c1 + C=CC(=O)N1CCN(c2nc(=O)n(-c3c(C)ccnc3C(C)C)c3nc(-c4c(O)cccc4F)c(F)cc23)C(C)C1
Second compound 0.1 µM
  IC50: 0.000493 µM
Second compound 0.316 µM
  IC50: 0.000426 µM
Second compound 1 µM
  IC50: 0.001 µM
Second compound 3.16 µM
  IC50: 0.000444 µM
Second compound 10 µM
  IC50: < 0.0001 µM
Second compound 0.1 µM, first compound 0.0001 µM
  viability, T/C: 84.6%
Second compound 0.1 µM, first compound 0.000316 µM
  viability, T/C: 52.6%
Second compound 0.1 µM, first compound 0.001 µM
  viability, T/C: 41.3%
Second compound 0.1 µM, first compound 0.00316 µM
  viability, T/C: 30.1%
Second compound 0.1 µM, first compound 0.01 µM
  viability, T/C: 25.8%
[1]
  viability, T/C: 15.7%
Second compound 0.316 µM, first compound 0.0001 µM
  viability, T/C: 89.7%
Second compound 0.316 µM, first compound 0.000316 µM
  viability, T/C: 51.9%
Second compound 0.316 µM, first compound 0.001 µM
  viability, T/C: 38.2%
Second compound 0.316 µM, first compound 0.00316 µM
  viability, T/C: 31.4%
Second compound 0.316 µM, first compound 0.01 µM
  viability, T/C: 28.9%
[2]
  viability, T/C: 19.6%
Second compound 1 µM, first compound 0.0001 µM
  viability, T/C: 87.9%
Second compound 1 µM, first compound 0.000316 µM
  viability, T/C: 61%
Second compound 1 µM, first compound 0.001 µM
  viability, T/C: 54.7%
Second compound 1 µM, first compound 0.00316 µM
  viability, T/C: 36.6%
Second compound 1 µM, first compound 0.01 µM
  viability, T/C: 32.9%
[3]
  viability, T/C: 24.5%
Second compound 3.16 µM, first compound 0.0001 µM
  viability, T/C: 63.5%
Second compound 3.16 µM, first compound 0.000316 µM
  viability, T/C: 51.7%
Second compound 3.16 µM, first compound 0.00316 µM
  viability, T/C: 33.5%
Second compound 3.16 µM, first compound 0.01 µM
  viability, T/C: 29.5%
[4]
  viability, T/C: 18.5%
Second compound 10 µM, first compound 0.0001 µM
  viability, T/C: 50.6%
Second compound 10 µM, first compound 0.000316 µM
  viability, T/C: 37.1%
Second compound 10 µM, first compound 0.001 µM
  viability, T/C: 28.8%
Second compound 10 µM, first compound 0.00316 µM
  viability, T/C: 32.4%
Second compound 10 µM, first compound 0.01 µM
  viability, T/C: 25%
[5]
  viability, T/C: 17.8%

## CC1(C)CCC(CN2CCN(c3ccc(C(=O)NS(=O)(=O)c4ccc(NCC5CCOCC5)c([N+](=O)[O-])c4)c(Oc4cnc5[nH]ccc5c4)c3)CC2)=C(c2ccc(Cl)cc2)C1 + C=CC(=O)N1CCN(c2nc(OCC3CCCN3C)nc3c2CCN(c2cccc4cccc(C)c24)C3)CC1CC#N
Second compound 0.0316 µM
  IC50: 4.89 µM
Second compound 0.1 µM
  IC50: 4.63 µM
Second compound 0.316 µM
  IC50: 2.01 µM
Second compound 1 µM
  IC50: 1.68 µM
Second compound 3.16 µM
  IC50: < 0.0316 µM
Second compound 0.0316 µM, first compound 0.0316 µM
  viability, T/C: 108%
Second compound 0.0316 µM, first compound 0.1 µM
  viability, T/C: 101%
Second compound 0.0316 µM, first compound 0.316 µM
  viability, T/C: 105%
Second compound 0.0316 µM, first compound 1 µM
  viability, T/C: 111%
Second compound 0.0316 µM, first compound 3.16 µM
  viability, T/C: 77.7%
Second compound 0.0316 µM, first compound 10 µM
  viability, T/C: 4.79%
[1]
  viability, T/C: 97.7%
[6]
  viability, T/C: 100%
[7]
  viability, T/C: 99.9%
[8]
  viability, T/C: 104%
[9]
  viability, T/C: 72.9%
[10]
  viability, T/C: 4.13%
[2]
  viability, T/C: 88.5%
[11]
  viability, T/C: 97.4%
[12]
  viability, T/C: 100%
[13]
  viability, T/C: 103%
[14]
  viability, T/C: 19.3%
[15]
  viability, T/C: 4.17%
[3]
  viability, T/C: 85.6%
[16]
  viability, T/C: 89.5%
[17]
  viability, T/C: 84.6%
[18]
  viability, T/C: 81.7%
[19]
  viability, T/C: 11.3%
[20]
  viability, T/C: 1.35%
[4]
  viability, T/C: 10.6%
[21]
  viability, T/C: 8.43%
[22]
  viability, T/C: 5.9%
[23]
  viability, T/C: 1.39%
[24]
  viability, T/C: 0.22%
[25]
  viability, T/C: 0.27%

## O=C(c1cc(Cc2n[nH]c(=O)c3ccccc23)ccc1F)N1CCN(C(=O)C2CC2)CC1 + COc1cc2nc(C)nc(NC(C)c3cc(N)cc(C(F)(F)F)c3)c2cc1OC1CCOC1
Second compound 0.1 µM
  IC50: > 10 µM
Second compound 0.316 µM
  IC50: > 10 µM
Second compound 1 µM
  IC50: > 10 µM
Second compound 3.16 µM
  IC50: > 10 µM
Second compound 10 µM
  IC50: > 10 µM
[1]
  viability, T/C: 92.5%
[6]
  viability, T/C: 71.2%
[7]
  viability, T/C: 83.6%
[8]
  viability, T/C: 88.9%
[9]
  viability, T/C: 75.5%
[10]
  viability, T/C: 74.5%
[2]
  viability, T/C: 81.2%
[11]
  viability, T/C: 66.3%
[12]
  viability, T/C: 70.2%
[13]
  viability, T/C: 73%
[14]
  viability, T/C: 79.6%
[15]
  viability, T/C: 58.2%
[3]
  viability, T/C: 107%
[16]
  viability, T/C: 102%
[17]
  viability, T/C: 94.6%
[18]
  viability, T/C: 96.3%
[19]
  viability, T/C: 92.3%
[20]
  viability, T/C: 64.6%
[4]
  viability, T/C: 108%
[21]
  viability, T/C: 96.6%
[22]
  viability, T/C: 97.5%
[23]
  viability, T/C: 83.9%
[24]
  viability, T/C: 81.1%
[25]
  viability, T/C: 51.5%
[5]
  viability, T/C: 107%
Second compound 10 µM, first compound 0.1 µM
  viability, T/C: 119%
Second compound 10 µM, first compound 0.316 µM
  viability, T/C: 112%
Second compound 10 µM, first compound 1 µM
  viability, T/C: 96.8%
Second compound 10 µM, first compound 3.16 µM
  viability, T/C: 86.8%
Second compound 10 µM, first compound 10 µM
  viability, T/C: 65.2%

Reference: PubChem BioAssay AID1963871 (Molecular Pharmacology Branch, DTP, NCI, 2024)
